# Measured values taken from the supplement of paper PMC7224384.
# Experiments:
# [1] = tested on: MDA-MB-453; assay: drug sensitivity score (DSS), in combination with BLU9931 (DSS (weighted AUC score)); higher = more sensitive (stronger viability decrease); extreme values may be limits of the assay; conditions: BLU9931 100 nM; 72 h
# In short: (§1)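 Cells of the MDA-MB-453 line (2000 per well) were added in medium, with or without 100 nM final FGFR4 inhibitor, to 384-well plates predispensed with FIMM Oncology set compounds at five 10-fold dilutions covering a 10,000-fold range. After 72 h at 37 °C, 5% CO2, CellTiterGlo 2.0 read cellular ATP. Percent viability came from per-plate normalisation to control wells, and the drug sensitivity score was defined as a weighted area under a four-parameter logistic fit.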
# [2] = tested on: MDA-MB-453; assay: drug sensitivity score (DSS), single agent (DSS (weighted AUC score)); higher = more sensitive (stronger viability decrease); extreme values may be limits of the assay; conditions: BLU9931 0 nM; 72 h
# In short: as §1
smiles,measurement,setting,value
Cc1c2oc3c(C)ccc(C(=O)N[C@@H]4C(=O)N[C@H](C(C)C)C(=O)N5CCC[C@H]5C(=O)N(C)CC(=O)N(C)[C@@H](C(C)C)C(=O)O[C@@H]4C)c3nc-2c(C(=O)N[C@@H]2C(=O)N[C@H](C(C)C)C(=O)N3CCC[C@H]3C(=O)N(C)CC(=O)N(C)[C@@H](C(C)C)C(=O)O[C@@H]2C)c(N)c1=O [Dactinomycin],drug sensitivity score,[1],22
same,drug sensitivity score,[2],21
Cn1c(=O)n(-c2ccc(C(C)(C)C#N)cc2)c2c3cc(-c4cnc5ccccc5c4)ccc3ncc21 [Dactolisib],drug sensitivity score,[1],18.3
same,drug sensitivity score,[2],16.3
CO[C@@H](C(=O)N1Cc2[nH]nc(NC(=O)c3ccc(N4CCN(C)CC4)cc3)c2C1)c1ccccc1 [Danusertib],drug sensitivity score,[1],0
same,drug sensitivity score,[2],0.3
O=C(/C=C/c1cccnc1)NCCCCC1CCN(C(=O)c2ccccc2)CC1 [Daporinad],drug sensitivity score,[1],28.6
same,drug sensitivity score,[2],30.5
CCN(CC)CCN(Cc1ccc(-c2ccc(C(F)(F)F)cc2)cc1)C(=O)Cn1c(SCc2ccc(F)cc2)nc(=O)c2c1CCC2 [Darapladib],drug sensitivity score,[1],0
same,drug sensitivity score,[2],1.5
Cc1nc(Nc2ncc(C(=O)Nc3c(C)cccc3Cl)s2)cc(N2CCN(CCO)CC2)n1 [Dasatinib],drug sensitivity score,[1],0
same,drug sensitivity score,[2],0
COc1cccc2c1C(=O)c1c(O)c3c(c(O)c1C2=O)C[C@@](O)(C(C)=O)C[C@@H]3O[C@H]1C[C@H](N)[C@H](O)[C@H](C)O1 [Daunorubicin],drug sensitivity score,[1],5.4
same,drug sensitivity score,[2],7.4
CC[C@@](C)(Nc1ccnc(-c2c[nH]c3ncccc23)n1)C(=O)NCC(F)(F)F [Decernotinib],drug sensitivity score,[1],0
same,drug sensitivity score,[2],0
Nc1ncn([C@H]2C[C@H](O)[C@@H](CO)O2)c(=O)n1 [Decitabine],drug sensitivity score,[1],0
same,drug sensitivity score,[2],0
CC(=O)N(O)CCCCCNC(=O)CCC(=O)N(O)CCCCCNC(=O)CCC(=O)N(O)CCCCCN [Deferoxamine],drug sensitivity score,[1],4.3
same,drug sensitivity score,[2],2.3
C[C@@H]1C[C@H]2[C@@H]3CCC4=CC(=O)C=C[C@]4(C)[C@@]3(F)[C@@H](O)C[C@]2(C)[C@@]1(O)C(=O)CO [Dexamethasone],drug sensitivity score,[1],0
same,drug sensitivity score,[2],4
C[C@H]1O[C@@H](O[C@H]2[C@@H](O)C[C@H](O[C@H]3[C@@H](O)C[C@H](O[C@H]4CC[C@@]5(C)[C@H](CC[C@@H]6[C@@H]5C[C@@H](O)[C@]5(C)[C@@H](C7=CC(=O)OC7)CC[C@]65O)C4)O[C@@H]3C)O[C@@H]2C)C[C@H](O)[C@@H]1O [Digoxin],drug sensitivity score,[1],10.6
same,drug sensitivity score,[2],8.2
CCc1cnn2c(NCc3ccc[n+]([O-])c3)cc(N3CCCC[C@H]3CCO)nc12 [Dinaciclib],drug sensitivity score,[1],21.5
same,drug sensitivity score,[2],22.1
CC(=O)O[C@@]12CO[C@@H]1C[C@H](O)[C@@]1(C)C(=O)[C@H](O)C3=C(C)[C@@H](OC(=O)[C@H](O)[C@@H](NC(=O)OC(C)(C)C)c4ccccc4)C[C@@](O)([C@@H](OC(=O)c4ccccc4)[C@H]21)C3(C)C [Docetaxel],drug sensitivity score,[1],14.1
same,drug sensitivity score,[2],18.3
Cc1ccc(-n2nc(C(C)(C)C)cc2NC(=O)Nc2ccc(OCCN3CCOCC3)c3ccccc23)cc1 [Doramapimod],drug sensitivity score,[1],1.8
same,drug sensitivity score,[2],2.3
CN1CCN(c2ccc3nc(-c4c(N)c5c(F)cccc5[nH]c4=O)[nH]c3c2)CC1 [Dovitinib],drug sensitivity score,[1],0
same,drug sensitivity score,[2],0
COc1cccc2c1C(=O)c1c(O)c3c(c(O)c1C2=O)C[C@@](O)(C(=O)CO)C[C@@H]3O[C@H]1C[C@H](N)[C@H](O)[C@H](C)O1 [Doxorubicin],drug sensitivity score,[1],5.1
same,drug sensitivity score,[2],6.8
C[C@H](Nc1ncnc2nc[nH]c12)c1cc2cccc(Cl)c2c(=O)n1-c1ccccc1 [Duvelisib],drug sensitivity score,[1],0
same,drug sensitivity score,[2],0
Cc1ccc(NS(=O)(=O)c2cccc(C#N)c2)c2[nH]cc(C#N)c12 [E7820],drug sensitivity score,[1],1.1
same,drug sensitivity score,[2],3.3
Cc1cc(Nc2cc(N3CCN(C)CC3)nc(/C=C/c3ccccc3)n2)n[nH]1 [ENMD-2076],drug sensitivity score,[1],7.8
same,drug sensitivity score,[2],7.1
Cc1cc(C)c(CNC(=O)c2cc(-c3ccc(CN4CCOCC4)cc3)cc3c2cnn3C2CCCC2)c(=O)[nH]1 [EPZ-5687],drug sensitivity score,[1],0
same,drug sensitivity score,[2],0.5
NC(=O)/C(=C/n1cnc(-c2cc(C(F)(F)F)cc(C(F)(F)F)c2)n1)c1cncnc1 [Eltanexor],drug sensitivity score,[1],14.2
same,drug sensitivity score,[2],13.8
CC(C)(O)CNc1nc(Nc2ccnc(C(F)(F)F)c2)nc(-c2cccc(C(F)(F)F)n2)n1 [Enasidenib],drug sensitivity score,[1],0.1
same,drug sensitivity score,[2],0
COC(=O)N[C@@H](C)CNc1nccc(-c2cn(C(C)C)nc2-c2cc(Cl)cc(NS(C)(=O)=O)c2F)n1 [Encorafenib],drug sensitivity score,[1],0
same,drug sensitivity score,[2],0.2
C[C@@H]1CN(C(=O)c2ccc(NC(=O)c3cc(O[C@H](C)c4c(Cl)ccc(F)c4Cl)c(N)nn3)cc2)C[C@H](C)N1 [Ensartinib],drug sensitivity score,[1],0
same,drug sensitivity score,[2],0
Nc1ccccc1NC(=O)c1ccc(CNC(=O)OCc2cccnc2)cc1 [Entinostat],drug sensitivity score,[1],8.7
same,drug sensitivity score,[2],9.2
c1cn2cc(-c3ccc4cn[nH]c4c3)nc(Nc3ccc(N4CCOCC4)cc3)c2n1 [Entospletinib],drug sensitivity score,[1],0
same,drug sensitivity score,[2],0
CN1CCN(c2ccc(C(=O)Nc3n[nH]c4ccc(Cc5cc(F)cc(F)c5)cc34)c(NC3CCOCC3)c2)CC1 [Entrectinib],drug sensitivity score,[1],0
same,drug sensitivity score,[2],0
CNC(=O)c1ccc(N2C(=S)N(c3ccc(C#N)c(C(F)(F)F)c3)C(=O)C2(C)C)cc1F [Enzalutamide],drug sensitivity score,[1],0
same,drug sensitivity score,[2],1.3
Cn1cc(C2=C(c3cn(C4CCN(Cc5ccccn5)CC4)c4ccccc34)C(=O)NC2=O)c2ccccc21 [Enzastaurin],drug sensitivity score,[1],0
same,drug sensitivity score,[2],0
NS(=O)(=O)NCCNc1nonc1/C(=N/O)Nc1ccc(F)c(Br)c1 [Epacadostat],drug sensitivity score,[1],0
same,drug sensitivity score,[2],0
COc1cccc2c1C(=O)c1c(O)c3c(c(O)c1C2=O)C[C@@](O)(C(=O)CO)C[C@@H]3O[C@H]1C[C@H](N)[C@@H](O)[C@H](C)O1 [Epirubicin],drug sensitivity score,[1],5.9
same,drug sensitivity score,[2],7.3
CCOc1ccccc1-n1c(C(C)N2CCN(C(=O)COc3ccc(Cl)cc3)CC2)nc2ccccc2c1=O (stereo not drawn) [Erastin],drug sensitivity score,[1],5.6
same,drug sensitivity score,[2],4.1
COc1cc(OC)cc(N(CCNC(C)C)c2ccc3ncc(-c4cnn(C)c4)nc3c2)c1 [Erdafitinib],drug sensitivity score,[1],0.2
same,drug sensitivity score,[2],4.3
C=C1C[C@@H]2CC[C@@]34C[C@H]5O[C@H]6[C@@H](O3)[C@H]3O[C@H](CC[C@@H]3O[C@H]6[C@H]5O4)CC(=O)C[C@@H]3[C@@H](OC)[C@@H](C[C@H](O)CN)O[C@H]3C[C@H]3O[C@@H](CC[C@@H]1O2)C[C@@H](C)C3=C [Eribulin],drug sensitivity score,[1],13.4
same,drug sensitivity score,[2],15.5
C#Cc1cccc(Nc2ncnc3cc(OCCOC)c(OCCOC)cc23)c1 [Erlotinib],drug sensitivity score,[1],4.7
same,drug sensitivity score,[2],2.7
COc1cc([C@@H]2c3cc4c(cc3[C@@H](O[C@@H]3O[C@@H]5CO[C@@H](C)O[C@H]5[C@H](O)[C@H]3O)[C@H]3COC(=O)[C@H]23)OCO4)cc(OC)c1O [Etoposide],drug sensitivity score,[1],2.9
same,drug sensitivity score,[2],2.8
CO[C@H]1C[C@@H]2CC[C@@H](C)[C@@](O)(O2)C(=O)C(=O)N2CCCC[C@H]2C(=O)O[C@H]([C@H](C)C[C@@H]2CC[C@@H](OCCO)[C@H](OC)C2)CC(=O)[C@H](C)/C=C(\C)[C@@H](O)[C@@H](OC)C(=O)[C@H](C)C[C@H](C)/C=C/C=C/C=C/1C [Everolimus],drug sensitivity score,[1],13.6
same,drug sensitivity score,[2],9.5
C=C1C[C@@H]2[C@H](CC[C@]3(C)C(=O)CC[C@@H]23)[C@@]2(C)C=CC(=O)C=C12 [Exemestane],drug sensitivity score,[1],0
same,drug sensitivity score,[2],4.8
CCn1c(=O)c(-c2ccc(Cl)cc2Cl)cc2cnc(Nc3ccc(N4CCNCC4)c(F)c3)nc21 [FRAX486],drug sensitivity score,[1],1.1
same,drug sensitivity score,[2],3.9
Cc1cnc(Nc2ccc(OCCN3CCCC3)cc2)nc1Nc1cccc(S(=O)(=O)NC(C)(C)C)c1 [Fedratinib],drug sensitivity score,[1],6.3
same,drug sensitivity score,[2],8.3
CON(C)C(=O)N1N=C(c2cc(F)ccc2F)S[C@@]1(CCCN)c1ccccc1 [Filanesib],drug sensitivity score,[1],15.3
same,drug sensitivity score,[2],16.7
O=C(Nc1nc2cccc(-c3ccc(CN4CCS(=O)(=O)CC4)cc3)n2n1)C1CC1 [Filgotinib],drug sensitivity score,[1],2.5
same,drug sensitivity score,[2],2.9
CC(C)(C)NC(=O)[C@H]1CC[C@H]2[C@@H]3CC[C@H]4NC(=O)C=C[C@]4(C)[C@H]3CC[C@]12C [Finasteride],drug sensitivity score,[1],0
same,drug sensitivity score,[2],0.3
CCCCCCCCc1ccc(CCC(N)(CO)CO)cc1 [Fingolimod],drug sensitivity score,[1],7.7
same,drug sensitivity score,[2],8.7
O=c1[nH]c(=O)n([C@H]2C[C@H](O)[C@@H](CO)O2)cc1F [Floxuridine],drug sensitivity score,[1],2
same,drug sensitivity score,[2],4.9
Nc1nc(F)nc2c1ncn2[C@@H]1O[C@H](CO)[C@@H](O)[C@@H]1O [Fludarabine],drug sensitivity score,[1],0
same,drug sensitivity score,[2],0
O=c1[nH]cc(F)c(=O)[nH]1 [Fluorouracil],drug sensitivity score,[1],0.1
same,drug sensitivity score,[2],2.1
CC(C)C(=O)Nc1ccc([N+](=O)[O-])c(C(F)(F)F)c1 [Flutamide],drug sensitivity score,[1],0
same,drug sensitivity score,[2],0
